Test results from US7053178B2, “Synthetic peptides and kits for diagnosis of anti-phospholipid syndrome” (Yeda Research Development Co., LTD, priority 1998, dated 2006).
Where no end group is shown, it is not given here.

Columns and labels:
anti-β2GPI G-3 mAb = assay: ELISA for adhesion molecule expression on HUVEC exposed to G-3 mAb; assay type: cell-based, human; details: G-3 mAb preincubated with peptide
Protocol: (§1) FIG. 4 is a bar graph showing inhibition of expression of the adhesion molecules E-selectin, intracellular adhesion molecule-1 (ICAM-1) and vascular cell adhesion molecule-1 (VCAM-1) on HUVEC by specific inhibitory monomer peptides A, B, or C. To the HUVEC incubated with β2GPI, were added anti-β2GPI ILA-1, ILA-3 and G-3 mAbs with and without preincubation (2 h) with the peptide monomers A, B and C, respectively, and control peptide D. The expression of adhesion molecules was probed by ELISA employing biotinylated anti-human ICAM-1, VCAM-1, E-selectin and streptavidin-alkaline phosphatase. Each point represents mean±SD of three different experiments.
(§2) (h) ELISA for detecting the expression of adhesion molecules following exposure to anti-β2GPI mAbs and the inhibitory peptides. HUVEC cells grown in 96-well plates and preincubated with mAbs, with and without different concentrations of specific and irrelevant peptides (100 ug/ml), were washed, fixed with 0.1% glutaraldehyde, and then treated with PBS containing 0.2% Triton-X100 in order to permeabilize the cell membrane (Adamson et al., 1996). The plates were blocked with 3% BSA and incubated with biotinylated mouse anti-human E-selectin, anti-human intracellular adhesion molecule-1 (ICAM-1) or anti-human vascular cell adhesion molecule-1 (VCAM-1) (PharMingen, Torreyana Road, San Diego, Calif.) 1 μg/ml for 1 hour. The cells were then exposed to streptavidin alkaline phosphatase (Jackson) and appropriate substrate.
(§3) The enhancement of monocytes to endothelial cells followed by increase in the amount of adhesion molecules expression, as a result of exposure of endothelial cells to anti-β2GPI mAbs, has been observed previously at the laboratory of one of the present inventors. The effect of each specific peptide monomer A, B, C on the expression of the adhesion molecules E-selectin, ICAM-1 and VCAM-1 on HUVEC caused by the corresponding anti-β2GPI mAb, was examined according to Materials and Methods, section (h). […]

[1] = test system: experimental APS induced by anti-β2GPI mAb G-3; assay: Murine experimental APS induced by G-3 mAb; assay type: in vivo, BALB/c mice; details: mice infused with G-3 mAb, peptide 40 μg/mouse daily 3 days, day 15
Protocol: (i) Mice: Female BALB/c mice, aged 10–12 weeks, were purchased from Tel-Aviv University Animal House, Israel. The females were caged overnight with BALB/c males and examined for vaginal plug next morning. The presence of the plug was considered as day 0 of pregnancy in all the studied groups. (j) Induction of murine experimental APS. Mice were infused intravenously with 20 μg of each one of the anti-β2GPI ILA-1, ILA-3, and G-3 mAbs at day 0 (the day at which a vaginal plug was observed following mating) (Blank et al., 1991), 6 hours later the mice received daily 40 μg/mouse of the tested peptides during 3 days. The mice were bled and sacrificed on day 15 of pregnancy. Fetal resorptions, activated partial thromboplastin time and platelet counts (markers of the APS-equivalent in mice) were determined as described (Blank et al., 1991). Significant fetal loss, thrombocytopenia and prolonged activated thromboplastin time (aPTT) were induced in naive mice following passive intravenous administration of the three anti-β2GPI mAbs ILA-1, ILA-3 and G-3, as described in Materials and Methods, section (j). The clinical manifestations of the experimental APS were prevented by infusion of the specific peptide monomers A, B, C which were delivered to the mice with the corresponding pathogenic anti-β2GPI mAbs, as shown in Table 2. […] Similarly, mice which were preinfused with control IgM and received a cocktail of the peptide monomers (A+B+C), were not affected.

anti-β2GPI ILA-3 mAb = assay: ELISA for adhesion molecule expression on HUVEC exposed to ILA-3 mAb; assay type: cell-based, human
Protocol: as §1, §2, §3

anti-β2GPI ILA-1 mAb = assay: U937 monocyte adhesion to HUVEC exposed to ILA-1 mAb; assay type: cell-based, human; details: ILA-1 mAb preincubated with peptide, 10 μM peptide
Protocol: FIGS. 3A–3C are graphs showing inhibition of U937 monocyte cell adhesion to HUVEC upon exposure to anti-β2GPI ILA-1, ILA-3 and G-3 mAbs and increasing concentrations of the inhibitory monomer peptides A, B and C, respectively, and of unrelated peptide D as control. The percentage of inhibition of adhesion was calculated as follows: % inhibition of adhesion=CPM in the presence of anti-β2GPI mAb−CPM in the presence of anti-β2GPI mAb and the tested peptide/CPM in the presence of anti-β2GPI mAb×100 (CPM=counts/min). Each point represents mean±SD of three different experiments.
(g) Adherence of U937 monocyte cells to endothelial cells in the presence of anti-β2GPI mAbs and the inhibitory peptides. This assay was performed as previously described (Carvalho et al., 1996). Briefly, U937 cells (a monocyte/macrophage-like cell line) were pretreated with heat-aggregated gamma-globulin for 30 min at 37° C. […] Radioactivity associated with adherence was quantified by beta-scintillation spectroscopy. The results were expressed as percent of added U937 cells that adhered and are presented as the mean±SD from 3–5 replicate wells.
The adhesion of monocytes to endothelial cells (EC) is considered a marker of EC activation. The percentage of adhesion is expressed as the portion of added U937 monocyte cells adhering to the HUVEC (thus reflecting the percentage of HUVEC coverage by the monocytes). […]

Sequence: CATLRVYKGG [Peptide C]
- E-selectin expression by HUVEC (anti-β2GPI G-3 mAb): 0.215±0.047 O.D.
- ICAM-1 expression by HUVEC (anti-β2GPI G-3 mAb): 0.186±0.062 O.D.
- VCAM-1 expression by HUVEC (anti-β2GPI G-3 mAb): 0.174±0.062 O.D.
- % Fetal loss (Resorbed fetuses/Total fetuses) [1]: 7 ± 2%
- Platelet count [1]: 1242 cells/mm^3 × 10^−3
- aPTT (activated partial thromboplastin time) [1]: 31 ± 4 s
- aPTT (activated partial thromboplastin time) ([1]; listed as peptide C): 31 ± 4 s

Sequence: KDKATFGTHDG [Peptide B]
- ICAM-1 expression by HUVEC (anti-β2GPI ILA-3 mAb; HUVEC exposed to ILA-3 mAb): abrogated
- VCAM-1 expression by HUVEC (anti-β2GPI ILA-3 mAb; HUVEC exposed to ILA-3 mAb): abrogated
- E-selectin expression by HUVEC (anti-β2GPI ILA-3 mAb; ILA-3 mAb preincubated with peptide): 0.211±0.064 O.D.

Sequence: NTLKTPRVGG [Peptide A]
- inhibition of adhesion of U937 to HUVEC (anti-β2GPI ILA-1 mAb): 84%
